Reference: patent US20110021530A1, “PYRIDAZINE DERIVATIVES AND THEIR USE AS THERAPEUTIC AGENTS IN THE TREATMENT OF SKIN DISORDERS” (XENON PHARMACEUTICALS INC., priority 2008, published 2011)

Key:
[1] = molecular target: T1, stearoyl-CoA desaturase (SCD) (Mus musculus, UniProt P13516); assay: HTS microsomal assay of stearoyl-CoA desaturase inhibition using mouse liver microsomes; format: biochemical; settings: % SCD enzyme activity remaining at 10 μM test compound
T1 construct: Reactions are started by adding 2 mg of microsomal protein; from tissue; host or cells: liver microsomes of male ICR mice on a high-carbohydrate, low fat diet
T1 sequence (P13516 1-355): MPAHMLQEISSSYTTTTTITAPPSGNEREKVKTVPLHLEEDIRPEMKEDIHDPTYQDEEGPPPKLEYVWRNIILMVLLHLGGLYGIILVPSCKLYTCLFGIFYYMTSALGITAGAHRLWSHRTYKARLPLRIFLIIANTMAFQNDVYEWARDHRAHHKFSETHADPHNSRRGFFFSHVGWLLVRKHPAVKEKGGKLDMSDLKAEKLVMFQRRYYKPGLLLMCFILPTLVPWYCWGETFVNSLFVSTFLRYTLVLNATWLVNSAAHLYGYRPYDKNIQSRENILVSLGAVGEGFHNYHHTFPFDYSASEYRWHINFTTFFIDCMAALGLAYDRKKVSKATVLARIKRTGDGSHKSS
Method: The absence of mitochondrial contamination is enzymatically assessed.
The compounds are analyzed with an HTS microsomal assay.

[2] = tested on: HEPG2; assay: HEPG2 IC50; format: cell-based; settings: Homo sapiens
[3] = molecular target: T2, SCD (Mus musculus, UniProt P13516); assay: Mouse SCD IC50 determination for compounds active in the HTS assay; format: biochemical
T2 sequence (P13516 1-355): T1 sequence (P13516 1-355)
Method: The compounds are analyzed with an HTS microsomal assay. The activities are defined in terms of % SCD enzyme activity remaining at the selected concentration (e.g., 10 μM) of the test compounds.

Mouse microsome SCD activity % remaining @ 10 μM [1] | IC50 [2] | IC50 [3] | Compound
22% |  |  | O=C(NCCC1CC1)c1ccc(N2CCN(C(=O)C3CCCCC3)CC2)nn1 [6-(4-CYCLOHEXANECARBONYLPIPERAZIN-1-YL)PYRIDAZINE-3-CARBOXYLIC ACID (2-CYCLOPROPYLETHYL)AMIDE]
61% |  |  | CC(C)CCNC(=O)c1ccc(N2CCN(C(=O)c3nnn(Cc4ccccc4)c3C(F)(F)F)CC2)nn1 [6-[4-(1-BENZYL-5-TRIFLUOROMETHYL-1H-[1,2,3]TRIAZOLE-4-CARBONYL)-PIPERAZIN-1-YL]PYRIDAZINE-3-CARBOXYLIC ACID (3-METHYLBUTYL)AMIDE]
73% |  |  | O=C(NCCC1CC1)c1ccc(N2CCN(C(=O)C3(O)CC3)CC2)nn1 [6-[4-(1-HYDROXYCYCLOPROPANECARBONYL)PIPERAZIN-1-YL]PYRIDAZINE-3-CARBOXYLIC ACID (2-CYCLOPROPYLETHYL)AMIDE]
15% | 0.44 µM | 0.35 µM | CC(C)CCNC(=O)c1ccc(N2CCN(C(=O)c3cnn(C)c3C(F)(F)F)CC2)nn1 [6-[4-(1-METHYL-5-TRIFLUOROMETHYL-1H-PYRAZOLE-4-CARBONYL)PIPERAZIN-1-YL]-PYRIDAZINE-3-CARBOXYLIC ACID (3-METHYLBUTYL)AMIDE]
26% |  |  | CC(C)CCNC(=O)c1ccc(N2CCN(C(=O)C3(C(F)(F)F)CC3)CC2)nn1 [6-[4-(1-TRIFLUOROMETHYLCYCLOPROPANECARBONYL)PIPERAZIN-1-YL]-PYRIDAZINE-3-CARBOXYLIC ACID (3-METHYLBUTYL)AMIDE]
8% | 0.21 µM | 0.23 µM | O=C(NCCC1CC1)c1ccc(N2CCN(Cc3ccc(Cl)cc3Cl)CC2)nn1 [6-[4-(2,4-DICHLOROBENZYL)-PIPERAZIN-1-YL]PYRIDAZINE-3-CARBOXYLIC ACID (2-CYCLOPROPYLETHYL)AMIDE]
36% |  |  | CCC(CC)C(=O)N1CCN(c2ccc(C(=O)NCCC3CC3)nn2)CC1 [6-[4-(2-ETHYLBUTYRYL)PIPERAZIN-1-YL]PYRIDAZINE-3-CARBOXYLIC ACID (2-CYCLOPROPYLETHYL)AMIDE]
0% |  |  | O=C(NCCc1ccccc1)c1ccc(N2CCN(C(=O)c3ccccc3C(F)(F)F)CC2)nn1 [6-[4-(2-Trifluoromethylbenzoyl)piperazin-1-yl]pyridazine-3-carboxylic acid phenethylamide]
61% |  |  | CC(C)CCNC(=O)c1ccc(N2CCN(C(=O)c3c(C(F)(F)F)nnn3Cc3ccccc3)CC2)nn1 [6-[4-(3-BENZYL-5-TRIFLUOROMETHYL-3H-[1,2,3]TRIAZOLE-4-CARBONYL)PIPERAZIN-1-YL]PYRIDAZINE-3-CARBOXYLIC ACID (3-METHYLBUTYL)AMIDE]
19% |  |  | CC(C)CCNC(=O)c1ccc(N2CCN(C(=O)C(C)CC(F)(F)F)CC2)nn1 (centres unmarked) [6-[4-(4,4,4-TRIFLUORO-2-METHYLBUTYRYL)PIPERAZIN-1-YL]PYRIDAZINE-3-CARBOXYLIC ACID (3-METHYLBUTYL)AMIDE]
11% | 2.53 µM |  | CC(C)CCNC(=O)c1ccc(N2CCN(C(=O)CC(C)C(F)(F)F)CC2)nn1 (centres unmarked) [6-[4-(4,4,4-TRIFLUORO-3-METHYLBUTYRYL)PIPERAZIN-1-YL]PYRIDAZINE-3-CARBOXYLIC ACID (3-METHYLBUTYL)AMIDE]
42% |  |  | CC(C)CCNC(=O)c1ccc(N2CCN(C(=O)CCC(F)(F)F)CC2)nn1 [6-[4-(4,4,4-TRIFLUOROBUTYRYL)PIPERAZIN-1-YL]PYRIDAZINE-3-CARBOXYLIC ACID (3-METHYLBUTYL)AMIDE]
29% |  |  | CC(C)CCNC(=O)c1ccc(N2CCN(C(=O)N3CCN(C)CC3)CC2)nn1 [6-[4-(4-METHYLPIPERAZINE-1-CARBONYL)PIPERAZIN-1-YL]PYRIDAZINE-3-CARBOXYLIC ACID (3-METHYLBUTYL)AMIDE]
12% |  | 0.09 µM | O=C(NCCC1CC1)c1ccc(N2CCN(C(=O)c3cc(Cl)ccc3C(F)(F)F)CC2)nn1 [6-[4-(5-CHLORO-2-TRIFLUOROMETHYLBENZOYL)PIPERAZIN-1-YL]PYRIDAZINE-3-CARBOXYLIC ACID (2-CYCLOPROPYLETHYL)AMIDE]
94% |  |  | O=C(NCCC1CC1)c1ccc(N2CCN(C(=O)c3ccccn3)CC2)nn1 [6-[4-(PYRIDINE-2-CARBONYL)PIPERAZIN-1-YL]PYRIDAZINE-3-CARBOXYLIC ACID (2-CYCLOPROPYLETHYL)AMIDE]
24% |  |  | CC(c1ccccc1C(F)(F)F)N1CCN(c2ccc(C(=O)NCCC3CC3)nn2)CC1.Cl (centres unmarked) [6-{4-[1-(2-TRIFLUOROMETHYLPHENYL)ETHYL]PIPERAZIN-1-YL}-PYRIDAZINE-3-CARBOXYLIC ACID (2-CYCLOPROPYLETHYL)AMIDE HYDROCHLORIDE]
10% |  | 0.59 µM | O=C(NCCC1CC1)c1ccc(N2CCN(C(=O)Cc3ccccc3C(F)(F)F)CC2)nn1 [6-{4-[2-(2-TRIFLUOROMETHYLPHENYL)ACETYL]PIPERAZIN-1-YL}PYRIDAZINE-3-CARBOXYLIC ACID (2-CYCLOPROPYLETHYL)AMIDE]
46% |  |  | CC(=O)Oc1ccccc1C(=O)N1CCN(c2ccc(C(=O)NCCC3CC3)nn2)CC1 [ACETIC ACID 2-{4-[6-(2-CYCLOPROPYLETHYLCARBAMOYL)PYRIDAZIN-3-YL]-PIPERAZINE-1-CARBONYL}PHENYL ESTER]

The next lines start with the compound.

Compound | Mouse microsome SCD activity % remaining @ 10 μM [1] | IC50 [2] | IC50 [3]
O=C(NCCc1ccccc1)Nc1ccc(N2CCN(C(=O)c3ccccc3C(F)(F)F)CC2)nn1 | 15% | 0.23 µM | 0.06 µM
O=C(Nc1ccc(N2CCN(C(=O)c3ccccc3C(F)(F)F)CC2)nn1)Nc1ccccc1F [1-(2-FLUOROPHENYL)-3-{6-[4-(2-TRIFLUOROMETHYLBENZOYL)PIPERAZIN-1-YL]-PYRIDAZIN-3-YL}UREA] | 73% |  | 
O=C(NCc1ccc(F)cc1)Nc1ccc(N2CCN(C(=O)c3ccccc3C(F)(F)F)CC2)nn1 [1-(4-FLUOROBENZYL)-3-{6-[4-(2-TRIFLUOROMETHYLBENZOYL)PIPERAZIN-1-YL]-PYRIDAZIN-3-YL}UREA] | 6% | 0.03 µM | 0.07 µM
O=C(Nc1ccc(F)cc1)Nc1ccc(N2CCN(C(=O)c3ccccc3C(F)(F)F)CC2)nn1 [1-(4-FLUOROPHENYL)-3-{6-[4-(2-TRIFLUOROMETHYLBENZOYL)PIPERAZIN-1-YL]-PYRIDAZIN-3-YL}UREA] | 82% |  | 
O=C(NCc1ccccc1)Nc1ccc(N2CCN(C(=O)c3ccccc3C(F)(F)F)CC2)nn1 [1-BENZYL-3-{6-[4-(2-TRIFLUOROMETHYLBENZOYL)PIPERAZIN-1-YL]PYRIDAZIN-3-YL}UREA] | 8% | 0.05 µM | 0.04 µM
CCCCNC(=O)Nc1ccc(N2CCN(C(=O)c3ccccc3C(F)(F)F)CC2)nn1 [1-BUTYL-3-{6-[4-(2-TRIFLUOROMETHYLBENZOYL)PIPERAZIN-1-YL]PYRIDAZIN-3-YL}UREA] | 13% | 0.21 µM | 0.07 µM
CCCCCNC(=O)Nc1ccc(N2CCN(C(=O)c3ccccc3C(F)(F)F)CC2)nn1 [1-PENTYL-3-{6-[4-(2-TRIFLUOROMETHYLBENZOYL)PIPERAZIN-1-YL]PYRIDAZIN-3-YL}UREA] | 6% | 0.04 µM | 0.01 µM
CC(NC(=O)Nc1ccc(N2CCN(C(=O)c3ccccc3C(F)(F)F)CC2)nn1)c1ccc(F)cc1 (centres unmarked) [1-[1-(4-Fluorophenyl)ethyl]-3-{6-[4-(2-trifluoromethylbenzoyl)piperazin-1-yl]pyridazin-3-yl}urea] | 45% |  | 
O=C(NCCCc1ccc(F)cc1)Nc1ccc(N2CCN(C(=O)c3ccccc3C(F)(F)F)CC2)nn1 [1-[3-(4-Fluorophenyl)propyl]-3-{6-[4-(2-trifluoromethylbenzoyl)piperazin-1-yl]pyridazin-3-yl}urea] | 14% | 0.35 µM | 1.37 µM
CCOC(=O)CCNC(=O)Nc1ccc(N2CCN(C(=O)c3ccccc3C(F)(F)F)CC2)nn1 [3-(3-{6-[4-(2-TRIFLUOROMETHYLBENZOYL)PIPERAZIN-1-YL]-PYRIDAZIN-3-YL}-UREIDO)PROPIONIC ACID ETHYL ESTER] | 18% | 5.43 µM | 2.77 µM
COC(=O)C(CC(C)C)NC(=O)c1ccc(N2CCN(C(=O)c3ccccc3C(F)(F)F)CC2)nn1 (centres unmarked) [4-METHYL-2-({6-[4-(2-TRIFLUOROMETHYLBENZOYL)PIPERAZIN-1-YL]-PYRIDAZINE-3-CARBONYL}AMINO)PENTANOIC ACID METHYL ESTER] | 69% |  | 
CC(C)(C)OC(=O)N1CCN(c2ccc(C(=O)NCCC3CC3)nn2)CC1 [4-[6-(2-CYCLOPROPYLETHYLCARBAMOYL)PYRIDAZIN-3-YL]PIPERAZINE-1-CARBOXYLIC ACID T-BUTYL ESTER] | 37% |  | 
CC(C)CCNC(=O)c1ccc(N2CCN(C(=O)OC(C)(C)C)CC2)nn1 [4-[6-(3-METHYLBUTYLCARBAMOYL)PYRIDAZIN-3-YL]PIPERAZINE-1-CARBOXYLIC ACID T-BUTYL ESTER] | 11% | 1.45 µM | 
